The results in this text go back to ChEMBL document CHEMBL4325865, “Optimization of a fragment linking hit toward Dengue and Zika virus NS5 methyltransferases inhibitors” (Eur J Med Chem, 2019).

Each structure is given as a SMILES string. Calls of active or inactive are those of the source. No cut-off for these calls is given here.

Series [1] addresses Nonstructural protein 5 (Dengue virus, UniProt V5TFZ2). The series can be described thus: Inhibition of DENV3 2'-O-MTase assessed as reduction in [3H]AdoMet transfer on to capped GpppAC4 RNA after 30 mins by microbeta liquid scintillation counting method. More on the design: species or system dengue virus type 3.
For series [2], the target named is Genome polyprotein (Zika virus, UniProt Q32ZE1). The series can be described thus: Inhibition of ZIKV 2'-O-MTase assessed as reduction in [3H]AdoMet transfer on to capped GpppAC4 RNA after 30 mins by microbeta liquid scintillation counting method.
Series [3] deals with Genome polyprotein (West Nile virus, UniProt P06935). The series can be described thus: Inhibition of WNV 2'-O-MTase assessed as reduction in [3H]AdoMet transfer on to capped GpppAC4 RNA after 30 mins by microbeta liquid scintillation counting method.
In series [4] the test system is dengue virus type 2. The series is described as follows: Antiviral activity against DENV2 CNR 25679 infected in African green monkey Vero E6 cells assessed as reduction in viral replication up to 20 uM by RT-PCR analysis. Type of series: functional, organism-based. The following applies: Vero C1008.
Series [5] can be described thus: Cytotoxicity against African green monkey Vero E6 cells. Type of series: cell-based. The conditions noted are these: chlorocebus sabaeus, Vero E6 cells (Vero C1008).
The subject of series [6] is Zika virus. The series can be described thus: Antiviral activity against ZIKV H/PF/2013 infected in African green monkey Vero E6 cells assessed as reduction in viral replication up to 20 uM by RT-PCR analysis. Type of series: functional, organism-based. The conditions noted are these: Vero C1008.
The test system of series [7] is Vero C1008. The series is described as follows: Cytotoxicity against African green monkey Vero E6 cells up to 100 uM. Type of series: cell-based. The conditions noted are these: chlorocebus sabaeus.

Nonstructural protein 5, sequence (V5TFZ2 whole entry): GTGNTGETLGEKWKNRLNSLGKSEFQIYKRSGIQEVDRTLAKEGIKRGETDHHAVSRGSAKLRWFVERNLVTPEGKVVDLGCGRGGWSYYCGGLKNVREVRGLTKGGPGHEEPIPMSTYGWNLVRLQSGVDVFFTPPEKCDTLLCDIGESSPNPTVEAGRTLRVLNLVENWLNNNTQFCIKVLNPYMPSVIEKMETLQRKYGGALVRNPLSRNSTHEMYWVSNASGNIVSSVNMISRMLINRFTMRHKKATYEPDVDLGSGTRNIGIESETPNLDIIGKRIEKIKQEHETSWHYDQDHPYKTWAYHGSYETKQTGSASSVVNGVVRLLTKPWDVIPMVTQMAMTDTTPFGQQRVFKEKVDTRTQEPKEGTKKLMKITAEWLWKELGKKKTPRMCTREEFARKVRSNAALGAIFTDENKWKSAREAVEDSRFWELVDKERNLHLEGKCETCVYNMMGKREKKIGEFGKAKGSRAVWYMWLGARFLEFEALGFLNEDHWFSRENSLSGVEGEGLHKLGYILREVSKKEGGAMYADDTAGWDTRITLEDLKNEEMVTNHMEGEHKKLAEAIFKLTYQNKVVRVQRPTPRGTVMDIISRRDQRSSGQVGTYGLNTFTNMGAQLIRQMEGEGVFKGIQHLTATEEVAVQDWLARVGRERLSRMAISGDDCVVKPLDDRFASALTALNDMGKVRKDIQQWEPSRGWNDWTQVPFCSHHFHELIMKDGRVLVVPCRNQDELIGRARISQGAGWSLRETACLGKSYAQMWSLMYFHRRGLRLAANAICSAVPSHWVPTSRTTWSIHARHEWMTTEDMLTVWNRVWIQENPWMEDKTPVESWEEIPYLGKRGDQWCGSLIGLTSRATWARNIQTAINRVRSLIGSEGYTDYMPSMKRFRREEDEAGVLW
Genome polyprotein (Zika virus, UniProt Q32ZE1), sequence (Q32ZE1 2517-3419 limits assumed): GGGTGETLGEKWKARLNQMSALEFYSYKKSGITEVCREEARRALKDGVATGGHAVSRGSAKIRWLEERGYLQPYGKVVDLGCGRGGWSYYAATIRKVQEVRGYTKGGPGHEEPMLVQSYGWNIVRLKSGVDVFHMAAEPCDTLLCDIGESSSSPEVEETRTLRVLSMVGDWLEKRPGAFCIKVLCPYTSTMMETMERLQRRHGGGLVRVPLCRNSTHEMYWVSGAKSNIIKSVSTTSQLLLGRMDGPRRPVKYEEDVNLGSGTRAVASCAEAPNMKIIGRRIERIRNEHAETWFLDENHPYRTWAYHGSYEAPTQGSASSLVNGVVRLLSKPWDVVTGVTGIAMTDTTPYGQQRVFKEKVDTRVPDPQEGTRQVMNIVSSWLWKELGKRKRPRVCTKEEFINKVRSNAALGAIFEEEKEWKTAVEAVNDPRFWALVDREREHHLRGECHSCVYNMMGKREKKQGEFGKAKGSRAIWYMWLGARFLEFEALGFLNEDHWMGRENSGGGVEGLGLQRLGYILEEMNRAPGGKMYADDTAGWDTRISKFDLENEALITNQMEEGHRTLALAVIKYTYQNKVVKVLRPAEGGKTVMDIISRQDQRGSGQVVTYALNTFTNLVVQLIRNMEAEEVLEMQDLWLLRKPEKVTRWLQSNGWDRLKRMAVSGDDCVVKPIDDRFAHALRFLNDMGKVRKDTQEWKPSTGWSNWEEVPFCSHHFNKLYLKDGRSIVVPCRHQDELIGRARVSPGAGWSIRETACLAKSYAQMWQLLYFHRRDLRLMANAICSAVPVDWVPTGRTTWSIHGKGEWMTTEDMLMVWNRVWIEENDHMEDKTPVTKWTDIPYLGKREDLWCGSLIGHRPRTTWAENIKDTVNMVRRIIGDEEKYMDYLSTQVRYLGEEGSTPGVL
Genome polyprotein (West Nile virus, UniProt P06935), sequence (P06935 2526-3430 limits assumed): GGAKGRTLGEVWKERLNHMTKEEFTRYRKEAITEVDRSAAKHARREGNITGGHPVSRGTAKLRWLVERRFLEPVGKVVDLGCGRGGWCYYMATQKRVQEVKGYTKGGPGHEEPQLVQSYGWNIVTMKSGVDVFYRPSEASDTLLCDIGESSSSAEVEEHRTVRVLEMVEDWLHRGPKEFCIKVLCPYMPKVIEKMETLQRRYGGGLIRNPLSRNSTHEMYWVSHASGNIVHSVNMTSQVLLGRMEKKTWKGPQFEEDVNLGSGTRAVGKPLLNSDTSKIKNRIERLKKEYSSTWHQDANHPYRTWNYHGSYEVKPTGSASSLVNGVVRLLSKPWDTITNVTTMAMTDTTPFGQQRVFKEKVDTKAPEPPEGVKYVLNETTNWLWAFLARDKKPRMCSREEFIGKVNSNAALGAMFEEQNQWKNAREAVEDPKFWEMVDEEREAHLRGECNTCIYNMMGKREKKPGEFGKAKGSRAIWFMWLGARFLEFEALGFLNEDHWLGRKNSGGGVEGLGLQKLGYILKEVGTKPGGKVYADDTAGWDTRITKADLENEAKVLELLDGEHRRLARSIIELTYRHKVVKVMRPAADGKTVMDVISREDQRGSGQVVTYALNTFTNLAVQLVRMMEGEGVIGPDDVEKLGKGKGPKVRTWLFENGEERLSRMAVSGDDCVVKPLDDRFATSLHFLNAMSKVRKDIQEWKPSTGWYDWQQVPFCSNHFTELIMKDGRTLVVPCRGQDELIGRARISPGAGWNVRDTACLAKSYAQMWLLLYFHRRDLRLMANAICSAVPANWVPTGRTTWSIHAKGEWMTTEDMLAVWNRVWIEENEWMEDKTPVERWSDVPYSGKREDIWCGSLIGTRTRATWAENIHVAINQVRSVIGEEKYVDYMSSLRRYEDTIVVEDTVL

Broadly, the IC50 is the concentration that inhibits the measured activity by half. As for `Nc1cc(C(F)(F)F)ccc1NC(=O)Nc1cccc(S(=O)(=O)NCCCC(=O)O)c1`, the figures for the IC50 in series [1] and in series [2] were 342 µM and 132 µM, respectively.

With `Nc1cc(C(F)(F)F)ccc1NC(=O)Nc1ccc(S(=O)(=O)Nc2ccc(C(=O)O)cc2)cc1`, the values for the IC50 in series [3], in series [1] and in series [2] were 51 to 299 µM, 110 µM and 67 µM, respectively.

The CC50 is the concentration at which the toxic effect on the cells reaches its halfway point. Turning to `O=C(Nc1ccc(S(=O)(=O)NCc2cccc(C(=O)O)c2)cc1)Nc1ccc(C(F)(F)F)cc1[N+](=O)[O-]`, the result in series [4] and in series [6] was inactive. In addition, in series [5], the CC50 was 70 µM. Also, the IC50 in series [1] is 145 µM; in series [2], 83 µM.

In the case of `O=C(O)Cc1cccc(OS(=O)(=O)c2ccc(NC(=O)Nc3ccc(C(F)(F)F)cc3[N+](=O)[O-])cc2)c1`, the result in series [4] and in series [6] was inactive. In addition, the CC50 in series [5] was 37.5 µM. Further, the concentration for half-maximal inhibition (IC50) turned out to be 26 µM in series [1] and 28 µM in series [2].

Regarding `Nc1cc(Cl)ccc1NC(=O)Nc1ccc(S(=O)(=O)Nc2ccc(C(=O)O)cc2)cc1`, the IC50 was 51 to 299 µM in series [3], 435 µM in series [1] and 87 µM in series [2].

Take `Nc1cc(C(F)(F)F)ccc1NC(=O)Nc1ccc(S(=O)(=O)Oc2cccc(CC(=O)Oc3cccc(CC(=O)O)c3)c2)cc1`: the Activity result in series [7] is on record as “Non-Toxic”. Besides, the outcome in series [4] and in series [6] was inactive. Moreover, the IC50 in series [1] came to 24 µM; in series [2], 19 µM.

Regarding `Nc1cc(C(F)(F)F)ccc1NC(=O)Nc1cccc(S(=O)(=O)NCc2cccc(C(=O)O)c2)c1`, the IC50 came to 304 µM in series [1] and 95 µM in series [2].

Regarding `Nc1cc(C(F)(F)F)ccc1NC(=O)Nc1ccc(S(=O)(=O)Oc2cccc(CC(=O)O)c2)cc1`, the values for the IC50 in series [1] and in series [2] were 276 µM and 111 µM, respectively.

Regarding `Nc1cc(Cl)ccc1NC(=O)Nc1ccc(S(=O)(=O)Oc2ccc(C(=O)O)cc2)cc1`, the IC50 was 51 to 299 µM in series [3], 368 µM in series [1] and 31 µM in series [2].

`Nc1cc(Cl)ccc1NC(=O)Nc1cccc(S(=O)(=O)Nc2ccc(C(=O)O)cc2)c1`: the IC50 is 51 to 299 µM in series [3], 452 µM in series [1] and 221 µM in series [2].

`CN1CCC(CNS(=O)(=O)c2ccc(NC(=O)Nc3ccc(C(F)(F)F)cc3N)cc2)C1` (stereo not drawn): the IC50 in series [1] and in series [2] was 400 µM each time.

On to `Nc1cc(C(F)(F)F)ccc1NC(=O)Nc1cccc(S(=O)(=O)Nc2ccc(C(=O)O)cc2)c1`, for which the IC50 in series [3] is 51 to 299 µM; in series [1], 91 µM; in series [2] it was 24 µM.

In the case of `Nc1cc(Cl)ccc1NC(=O)Nc1cccc(S(=O)(=O)Oc2ccc(C(=O)O)cc2)c1`, the IC50 in series [3] was 51 to 299 µM; in series [1], 369 µM; in series [2], 33 µM.

Regarding `O=C(O)Cc1ccc(NS(=O)(=O)c2cccc(NC(=O)Nc3ccc(C(F)(F)F)cc3[N+](=O)[O-])c2)cc1`, the IC50 in series [1] worked out at 181 µM; in series [2], 185 µM.

In the case of `Nc1cc(C(F)(F)F)ccc1NC(=O)Nc1ccc(S(=O)(=O)NCc2cccc(C(=O)O)c2)cc1`, the Activity result in series [7] is “Non-Toxic”. Further, the outcome in series [4] and in series [6] was inactive. The IC50 in series [1] worked out at 174 µM; in series [2], 61 µM.

For the compound `CN1CCC(CNS(=O)(=O)c2ccc(NC(=O)Nc3ccc(C(F)(F)F)cc3[N+](=O)[O-])cc2)C1` (stereo not drawn), the IC50 in series [1] and in series [2] was 400 µM each time.

On to `Nc1cc(C(F)(F)F)ccc1NC(=O)Nc1cccc(S(=O)(=O)Nc2ccc(CC(=O)O)cc2)c1`, for which the IC50 in series [1] came to 144 µM; in series [2], 135 µM.

In the case of `O=C(Nc1cccc(S(=O)(=O)NCc2cccc(C(=O)O)c2)c1)Nc1ccc(C(F)(F)F)cc1[N+](=O)[O-]`, the IC50 was 400 µM in series [1] and 136 µM in series [2].

`Nc1cc(C(F)(F)F)ccc1NC(=O)Nc1cccc(S(=O)(=O)NCc2ccc(C(=O)O)cc2)c1`: the half-inhibitory concentration (IC50) in series [1] was 366 µM; in series [2], 122 µM.

`COC(=O)CCCNS(=O)(=O)c1cccc(NC(=O)Nc2ccc(C(F)(F)F)cc2[N+](=O)[O-])c1`: the concentration for half-maximal inhibition (IC50) in series [1] and in series [2] was 400 µM in each case.
